Source: ChEMBL document CHEMBL1201862, “PubChem BioAssay data set” (2004)
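A five-concentration, 48-hour dose response in 96-well plates underlies each endpoint, interpolated linearly between surrounding concentrations. GI50 marks 50% less growth.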 Activity calls are given as the source filed them. No stated cut-off is given here; in the data, active = GI50 up to about 1.1 µM and inactive = higher.

Legend:
Assay in all cases: growth of human tumour cells (NCI), 48 h
HOP-18 = system: HOP-18
MOLT-4 = system: MOLT-4
HCC 2998 = system: HCC 2998
TK-10 = system: TK-10
OVCAR-8 = system: OVCAR-8
DU-145 = system: DU-145
HCT-15 = system: HCT-15
RPMI-8226 = system: RPMI-8226
M19-MEL = system: M19-MEL
SK-MEL-5 = system: SK-MEL-5
LXFL 529 = system: LXFL 529
HT-29 = system: HT-29
SF-295 = system: SF-295
COLO 205 = system: COLO 205
M14 = system: M14
OVCAR-5 = system: OVCAR-5
DMS-114 = system: DMS-114
Malme-3M = system: Malme-3M
CAKI-1 = system: CAKI-1
NCI-H522 = system: NCI-H522
K562 = system: K562
HOP-62 = system: HOP-62
XF498 = system: XF498
NCI-H460 = system: NCI-H460
MDA-MB-435 = system: MDA-MB-435
786-0 = system: 786-0
SW-620 = system: SW-620
CCRF-CEM = system: CCRF-CEM
MCF7 = system: MCF7
EKVX = system: EKVX
T47D = system: T47D
Hs-578T = system: Hs-578T
HCT-116 = system: HCT-116
ACHN = system: ACHN
SK-OV-3 = system: SK-OV-3
A549 = system: A549
RXF 393 = system: RXF 393
UACC-62 = system: UACC-62
BT-549 = system: BT-549
HL-60 = system: HL-60
IGROV-1 = system: IGROV-1
MDA-MB-231 = system: MDA-MB-231
KM-20L2 = system: KM-20L2
NCI-H23 = system: NCI-H23
DMS-273 = system: DMS-273
SNB-78 = system: SNB-78
OVCAR-3 = system: OVCAR-3
SNB-19 = system: SNB-19
HOP-92 = system: HOP-92
SK-MEL-2 = system: SK-MEL-2
NCI-H226 = system: NCI-H226
OVCAR-4 = system: OVCAR-4
UO-31 = system: UO-31
KM12 = system: KM12
SNB-75 = system: SNB-75
SN12C = system: SN12C
SF-268 = system: SF-268
U-251 = system: U-251
DLD-1 = system: DLD-1
SF-539 = system: SF-539
SR = system: SR
SK-MEL-28 = system: SK-MEL-28
UACC-257 = system: UACC-257
LOX IMVI = system: LOX IMVI
A498 = system: A498
RXF 631 = system: RXF 631

## COc1ccc2c(c1)C=C([N+](=O)[O-])C(C1OC(C)(C)OC1C1COC(C)(C)O1)O2 (stereo not given)
HOP-18
  GI50: 24.7 µM (inactive)
MOLT-4
  GI50: 1.79 µM (inactive)
HCC 2998
  GI50: 13.3 µM (inactive)
TK-10
  GI50: 18.4 µM (inactive)
OVCAR-8
  GI50: 2.85 µM (inactive)
DU-145
  GI50: 16 µM (inactive)
HCT-15
  GI50: 1.95 µM
RPMI-8226
  GI50: 1.67 µM (inactive)
M19-MEL
  GI50: 1.63 µM (inactive)
SK-MEL-5
  GI50: 2.82 µM (inactive)
LXFL 529
  GI50: 3.81 µM (inactive)
HT-29
  GI50: 1.97 µM (inactive)
SF-295
  GI50: 7.89 µM (inactive)
COLO 205
  GI50: 10.8 µM (inactive)
M14
  GI50: 2.07 µM (inactive)
OVCAR-5
  GI50: 8.04 µM (inactive)
DMS-114
  GI50: 2.88 µM (inactive)
Malme-3M
  GI50: 2.31 µM (inactive)
CAKI-1
  GI50: 4.51 µM (inactive)
NCI-H522
  GI50: 0.731 µM (active)
K562
  GI50: 1.44 µM (inactive)
HOP-62
  GI50: 20 µM (inactive)
XF498
  GI50: 11 µM (inactive)
NCI-H460
  GI50: 3.64 µM (inactive)
MDA-MB-435
  GI50: 3.06 µM (inactive)
786-0
  GI50: 12.8 µM (inactive)
SW-620
  GI50: 2.26 µM (inactive)
CCRF-CEM
  GI50: 0.386 µM (active)
MCF7
  GI50: 2.54 µM (inactive)
EKVX
  GI50: 13.8 µM (inactive)
T47D
  GI50: 12 µM (inactive)
Hs-578T
  GI50: 4.18 µM (inactive)
HCT-116
  GI50: 1.79 µM (inactive)
ACHN
  GI50: 2.4 µM (inactive)
SK-OV-3
  GI50: 11 µM (inactive)
A549
  GI50: 18 µM (inactive)
RXF 393
  GI50: 1.98 µM (inactive)
UACC-62
  GI50: 1.82 µM (inactive)
BT-549
  GI50: 2.74 µM (inactive)
HL-60
  GI50: 1.86 µM (inactive)
IGROV-1
  GI50: 14.6 µM (inactive)
MDA-MB-231
  GI50: 2.36 µM (inactive)
KM-20L2
  GI50: 5.08 µM (inactive)
NCI-H23
  GI50: 11.6 µM (inactive)
DMS-273
  GI50: 2.9 µM (inactive)
SNB-78
  GI50: 2.79 µM (inactive)
OVCAR-3
  GI50: 8.69 µM (inactive)
SNB-19
  GI50: 11.9 µM (inactive)
HOP-92
  GI50: 16.1 µM (inactive)
SK-MEL-2
  GI50: 1.87 µM (inactive)
NCI-H226
  GI50: 14.6 µM (inactive)
OVCAR-4
  GI50: 8.17 µM (inactive)
UO-31
  GI50: 13.1 µM (inactive)
KM12
  GI50: 2 µM (inactive)
SNB-75
  GI50: 14.5 µM (inactive)
SN12C
  GI50: 4.91 µM (inactive)
SF-268
  GI50: 3.5 µM (inactive)
U-251
  GI50: 3.01 µM (inactive)
DLD-1
  GI50: 1.51 µM (inactive)
SF-539
  GI50: 5.66 µM (inactive)
SR
  GI50: 1.55 µM (inactive)
SK-MEL-28
  GI50: 1.74 µM (inactive)
UACC-257
  GI50: 2.77 µM (inactive)
LOX IMVI
  GI50: 1.49 µM (inactive)
A498
  GI50: 18 µM (inactive)

## O=C(/C=N/c1ccccc1[S-])c1ccco1.O=C(/C=N/c1ccccc1[S-])c1ccco1.[Zn+2]
MOLT-4
  GI50: 5.2 µM (inactive)
HCC 2998
  GI50: 10 µM (inactive)
TK-10
  GI50: 16.7 µM (inactive)
OVCAR-8
  GI50: 6.37 µM (inactive)
HCT-15
  GI50: 8.59 µM
SK-MEL-5
  GI50: 16.9 µM (inactive)
LXFL 529
  GI50: 10 µM (inactive)
HT-29
  GI50: 18.7 µM (inactive)
SF-295
  GI50: 3.78 µM (inactive)
COLO 205
  GI50: 17.5 µM (inactive)
M14
  GI50: 6.53 µM (inactive)
OVCAR-5
  GI50: 16.8 µM (inactive)
DMS-114
  GI50: 21.2 µM (inactive)
Malme-3M
  GI50: 10 µM (inactive)
CAKI-1
  GI50: 10 µM (inactive)
NCI-H522
  GI50: 10 µM (inactive)
K562
  GI50: 18.9 µM (inactive)
HOP-62
  GI50: 6 µM (inactive)
NCI-H460
  GI50: 3.87 µM (inactive)
786-0
  GI50: 8.3 µM (inactive)
SW-620
  GI50: 10.9 µM (inactive)
CCRF-CEM
  GI50: 2.95 µM (inactive)
RXF 631
  GI50: 17 µM (inactive)
HCT-116
  GI50: 4.06 µM (inactive)
ACHN
  GI50: 5.46 µM (inactive)
SK-OV-3
  GI50: 27.9 µM (inactive)
A549
  GI50: 3.98 µM (inactive)
UACC-62
  GI50: 15.6 µM (inactive)
HL-60
  GI50: 3.56 µM (inactive)
IGROV-1
  GI50: 5.14 µM (inactive)
KM-20L2
  GI50: 15.3 µM (inactive)
NCI-H23
  GI50: 5.41 µM (inactive)
SNB-78
  GI50: 16.8 µM (inactive)
OVCAR-3
  GI50: 15.2 µM (inactive)
SNB-19
  GI50: 5.78 µM (inactive)
HOP-92
  GI50: 11.5 µM (inactive)
SK-MEL-2
  GI50: 15.8 µM (inactive)
UO-31
  GI50: 2.99 µM (inactive)
KM12
  GI50: 12.8 µM (inactive)
SNB-75
  GI50: 8.28 µM (inactive)
SN12C
  GI50: 10 µM (inactive)
SF-268
  GI50: 17.9 µM (inactive)
U-251
  GI50: 4.23 µM (inactive)
DLD-1
  GI50: 4.44 µM (inactive)
SF-539
  GI50: 13.3 µM (inactive)
SR
  GI50: 6.58 µM (inactive)
SK-MEL-28
  GI50: 10.7 µM (inactive)
UACC-257
  GI50: 12.5 µM (inactive)
LOX IMVI
  GI50: 7.46 µM (inactive)
A498
  GI50: 21.5 µM (inactive)
